Test results published in ChEMBL document CHEMBL3232938, “Design, synthesis, and biological evaluation of dihydroartemisinin-fluoroquinolone conjugates as a novel type of potential antitubercular agents” (2014).
≈ marks a conversion by molar mass, not a printed value.

Legend:
Assay type in all cases: functional
[1] = tested on: Mycobacterium tuberculosis; assay: Antibacterial activity against drug-sensitive 1 ug/ml Mycobacterium tuberculosis clinical isolate 821 assessed as growth inhibition after 7 days by microtiter plate assay; conditions: isolate 821, 168 h
[2] = tested on: Mycobacterium tuberculosis; assay: Antibacterial activity against drug-sensitive 1 ug/ml Mycobacterium tuberculosis clinical isolate 741 assessed as growth inhibition after 7 days by microtiter plate assay; conditions: isolate 741, 168 h
[3] = tested on: Mycobacterium tuberculosis; assay: Antibacterial activity against drug-sensitive 1 ug/ml Mycobacterium tuberculosis clinical isolate 758 assessed as growth inhibition after 7 days by microtiter plate assay; conditions: isolate 758, 168 h
[4] = tested on: Salmonella; assay: Antibacterial activity against Salmonella assessed as growth inhibition after 7 days by microtiter plate assay; conditions: 168 h
[5] = tested on: Salmonella; assay: Antibacterial activity against Salmonella assessed as zone of inhibition at 2 ug/ml; conditions: read-out: DIZ
[6] = tested on: Escherichia coli; assay: Antibacterial activity against Escherichia coli assessed as growth inhibition after 7 days by microtiter plate assay; conditions: 168 h
[7] = tested on: Pseudomonas aeruginosa; assay: Antibacterial activity against Pseudomonas aeruginosa assessed as growth inhibition after 7 days by microtiter plate assay; conditions: 168 h
[8] = tested on: Mycobacterium tuberculosis; assay: Antibacterial activity against drug-sensitive 1 ug/ml Mycobacterium tuberculosis clinical isolate 760 assessed as growth inhibition after 7 days by microtiter plate assay; conditions: isolate 760, 168 h
[9] = tested on: Mycobacterium tuberculosis; assay: Antibacterial activity against 0.5 ug/ml Mycobacterium tuberculosis H37Rv ATCC 27294 assessed as growth inhibition after 7 days by microtiter plate assay; conditions: H37Rv ATCC 27294, 168 h
[10] = tested on: Staphylococcus aureus; assay: Antibacterial activity against Staphylococcus aureus assessed as growth inhibition after 7 days by microtiter plate assay; conditions: 168 h
[11] = tested on: Mycobacterium tuberculosis; assay: Antibacterial activity against 1 ug/ml Mycobacterium tuberculosis H37Rv ATCC 27294 assessed as growth inhibition after 7 days by microtiter plate assay; conditions: H37Rv ATCC 27294, 168 h
[12] = tested on: Staphylococcus aureus; assay: Antibacterial activity against Staphylococcus aureus assessed as zone of inhibition at 2 ug/ml; conditions: read-out: DIZ
[13] = tested on: Pseudomonas aeruginosa; assay: Antibacterial activity against Pseudomonas aeruginosa assessed as zone of inhibition at 2 ug/ml; conditions: read-out: DIZ
[14] = tested on: Escherichia coli; assay: Antibacterial activity against Escherichia coli assessed as zone of inhibition at 2 ug/ml; conditions: read-out: DIZ
[15] = tested on: Escherichia coli; assay: Antibacterial activity against duck Escherichia coli assessed as growth inhibition after 7 days by microtiter plate assay; conditions: 168 h
[16] = tested on: Mycobacterium tuberculosis; assay: Antibacterial activity against drug-sensitive 1 ug/ml Mycobacterium tuberculosis clinical isolate 753 assessed as growth inhibition after 7 days by microtiter plate assay; conditions: isolate 753, 168 h
[17] = tested on: Escherichia coli; assay: Antibacterial activity against duck Escherichia coli assessed as zone of inhibition at 2 ug/ml; conditions: read-out: DIZ
[18] = tested on: Mycobacterium tuberculosis; assay: Antibacterial activity against Mycobacterium tuberculosis H37Rv ATCC 27294 assessed as growth inhibition after 7 days by microtiter plate assay; conditions: H37Rv ATCC 27294, 168 h

| Compound | MIC [1] | MIC [2] | MIC [3] | MIC [4] | zone of inhibition at 2 µg/mL [5] | MIC [6] | MIC [7] | MIC [8] | MIC [9] | MIC [10] | MIC [11] | zone of inhibition at 2 µg/mL [12] | zone of inhibition at 2 µg/mL [13] | zone of inhibition at 2 µg/mL [14] | MIC [15] | MIC [16] | zone of inhibition at 2 µg/mL [17] | MIC [18] |
| --- | --- | --- | --- | --- | --- | --- | --- | --- | --- | --- | --- | --- | --- | --- | --- | --- | --- | --- |
| C[C@H]1[C@@H](OCCNC2CCN(c3c(F)cc4c(=O)c(C(=O)O)cn(C5CC5)c4c3Cl)C2)O[C@@H]2O[C@@]3(C)CC[C@H]4[C@H](C)CC[C@@H]1[C@@]24OO3 (some centres undefined) | 0.25 µg/mL (≈ 0.37 µM) | 0.125 µg/mL (≈ 0.185 µM) | 0.125 µg/mL (≈ 0.185 µM) | 16 µg/mL (≈ 23.7 µM) | 12 mm | 8 µg/mL (≈ 11.8 µM) | 16 µg/mL (≈ 23.7 µM) | 0.125 µg/mL (≈ 0.185 µM) | 0.092 µM (≈ 0.0622 µg/mL) | 16 µg/mL (≈ 23.7 µM) | 0.185 µM (≈ 0.125 µg/mL) | < 5 mm | < 5 mm | 8 mm | 16 µg/mL (≈ 23.7 µM) | 0.125 µg/mL (≈ 0.185 µM) | 7 mm | – |
| C[C@H]1[C@@H](OCCN2CCN(c3cc4c(cc3F)c(=O)c(C(=O)O)cn4C3CC3)CC2)O[C@@H]2O[C@@]3(C)CC[C@H]4[C@H](C)CC[C@@H]1[C@@]24OO3 | – | – | – | 16 µg/mL (≈ 24.9 µM) | < 5 mm | 16 µg/mL (≈ 24.9 µM) | 16 µg/mL (≈ 24.9 µM) | – | > 6.23 µM | 8 µg/mL (≈ 12.5 µM) | > 6.23 µM | < 5 mm | < 5 mm | < 5 mm | 8 µg/mL (≈ 12.5 µM) | – | < 5 mm | – |
| CCn1cc(C(=O)O)c(=O)c2cc(F)c(N3CCN(CCO[C@H]4O[C@@H]5O[C@@]6(C)CC[C@H]7[C@H](C)CC[C@@H]([C@H]4C)[C@@]57OO6)CC3)cc21 | – | – | – | 16 µg/mL (≈ 25.4 µM) | < 5 mm | 16 µg/mL (≈ 25.4 µM) | 16 µg/mL (≈ 25.4 µM) | – | > 3.18 µM | 8 µg/mL (≈ 12.7 µM) | > 3.18 µM | < 5 mm | < 5 mm | < 5 mm | 16 µg/mL (≈ 25.4 µM) | – | < 5 mm | – |
| C[C@H]1[C@@H](OCCN2CCN(c3cc4c(cc3F)c(=O)c(C(=O)O)cn4-c3ccc(F)cc3)CC2)O[C@@H]2O[C@@]3(C)CC[C@H]4[C@H](C)CC[C@@H]1[C@@]24OO3 | – | – | – | 16 µg/mL (≈ 23 µM) | < 5 mm | 16 µg/mL (≈ 23 µM) | 16 µg/mL (≈ 23 µM) | – | > 2.87 µM | 16 µg/mL (≈ 23 µM) | > 2.87 µM | < 5 mm | < 5 mm | < 5 mm | 8 µg/mL (≈ 11.5 µM) | – | < 5 mm | – |
| C[C@H]1[C@@H](O)O[C@@H]2O[C@@]3(C)CC[C@H]4[C@H](C)CC[C@@H]1[C@@]24OO3 [ARTENIMOL] | > 16 µg/mL | > 16 µg/mL | > 16 µg/mL | 16 µg/mL (≈ 56.3 µM) | < 5 mm | 16 µg/mL (≈ 56.3 µM) | 16 µg/mL (≈ 56.3 µM) | > 16 µg/mL | – | 16 µg/mL (≈ 56.3 µM) | – | < 5 mm | < 5 mm | < 5 mm | 4 µg/mL (≈ 14.1 µM) | > 16 µg/mL | < 5 mm | > 56 µM |
| O=C(O)c1cn(C2CC2)c2cc(N3CCNCC3)c(F)cc2c1=O [CIPROFLOXACIN] | – | – | – | – | 24 mm | – | – | – | – | 8 µg/mL (≈ 24.1 µM) | – | 9 mm | 18 mm | – | – | – | 42 mm | 0.75 µM (≈ 0.249 µg/mL) |
| NC1CCN(c2c(F)cc3c(=O)c(C(=O)O)cn(C4CC4)c3c2Cl)C1 (centres undefined) [CLINAFLOXACIN] | 1 µg/mL (≈ 2.73 µM) | 1 µg/mL (≈ 2.73 µM) | 0.25 µg/mL (≈ 0.683 µM) | 4 µg/mL (≈ 10.9 µM) | 28 mm | 0.25 µg/mL (≈ 0.683 µM) | 0.5 µg/mL (≈ 1.37 µM) | 0.25 µg/mL (≈ 0.683 µM) | – | 2 µg/mL (≈ 5.47 µM) | – | 21 mm | 32 mm | 25 mm | 4 µg/mL (≈ 10.9 µM) | 0.5 µg/mL (≈ 1.37 µM) | 43 mm | 0.43 µM (≈ 0.157 µg/mL) |
| CCn1cc(C(=O)O)c(=O)c2cc(F)c(N3CCNCC3)cc21 [NORFLOXACIN] | 4 µg/mL (≈ 12.5 µM) | 8 µg/mL (≈ 25.1 µM) | 4 µg/mL (≈ 12.5 µM) | 16 µg/mL (≈ 50.1 µM) | 17 mm | 2 µg/mL (≈ 6.26 µM) | 2 µg/mL (≈ 6.26 µM) | 4 µg/mL (≈ 12.5 µM) | – | 16 µg/mL (≈ 50.1 µM) | – | < 5 mm | 16 mm | 18 mm | 4 µg/mL (≈ 12.5 µM) | 4 µg/mL (≈ 12.5 µM) | 33 mm | 6.26 µM (≈ 2 µg/mL) |
| CC1COc2c(N3CCN(C)CC3)c(F)cc3c(=O)c(C(=O)O)cn1c23 (centres undefined) [OFLOXACIN] | – | – | – | – | – | – | – | – | 0.69 µM (≈ 0.249 µg/mL) | – | 0.69 µM (≈ 0.249 µg/mL) | – | – | – | – | – | – | – |
